Laboratory results from BindingDB's records for patent WO2025049746 (Eikon Therapeutics, 2025).

How the values were obtained:
[1] = biological target: Bifunctional 3'-5' exonuclease/ATP-dependent helicase WRN (Homo sapiens, UniProt Q14191); assay: ADP-Glo Kinase Assay
Method: ATPase activity was measured using the ADP-Glo Kinase Assay following the manufacturers recommended protocol.

[2] = biological target: T1, Bifunctional 3'-5' exonuclease/ATP-dependent helicase WRN [480-1251] (UniProt Q14191); assay: Biochemical Activity Assays
T1 construct: 480-1251
T1 sequence (Q14191 480-1251): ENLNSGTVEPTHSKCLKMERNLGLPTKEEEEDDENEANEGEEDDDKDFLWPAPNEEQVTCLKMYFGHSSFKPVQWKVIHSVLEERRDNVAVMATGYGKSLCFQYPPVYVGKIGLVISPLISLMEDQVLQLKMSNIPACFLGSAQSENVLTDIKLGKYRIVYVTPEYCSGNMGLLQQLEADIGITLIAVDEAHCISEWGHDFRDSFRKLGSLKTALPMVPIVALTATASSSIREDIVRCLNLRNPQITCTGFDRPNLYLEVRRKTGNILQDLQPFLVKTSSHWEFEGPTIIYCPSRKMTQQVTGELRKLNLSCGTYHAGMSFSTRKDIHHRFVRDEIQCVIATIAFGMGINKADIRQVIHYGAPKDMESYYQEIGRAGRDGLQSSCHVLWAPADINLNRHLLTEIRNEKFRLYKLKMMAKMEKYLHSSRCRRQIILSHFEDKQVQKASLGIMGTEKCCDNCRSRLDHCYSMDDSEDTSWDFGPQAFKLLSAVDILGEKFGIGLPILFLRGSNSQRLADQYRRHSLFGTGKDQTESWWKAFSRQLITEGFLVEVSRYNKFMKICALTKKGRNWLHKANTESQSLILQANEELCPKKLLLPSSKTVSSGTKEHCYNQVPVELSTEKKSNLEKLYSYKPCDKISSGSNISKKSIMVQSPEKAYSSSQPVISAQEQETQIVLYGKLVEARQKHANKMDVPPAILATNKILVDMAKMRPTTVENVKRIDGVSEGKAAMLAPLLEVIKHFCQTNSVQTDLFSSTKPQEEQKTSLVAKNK

Chain of Bifunctional 3'-5' exonuclease/ATP-dependent helicase WRN (Q14191 whole entry): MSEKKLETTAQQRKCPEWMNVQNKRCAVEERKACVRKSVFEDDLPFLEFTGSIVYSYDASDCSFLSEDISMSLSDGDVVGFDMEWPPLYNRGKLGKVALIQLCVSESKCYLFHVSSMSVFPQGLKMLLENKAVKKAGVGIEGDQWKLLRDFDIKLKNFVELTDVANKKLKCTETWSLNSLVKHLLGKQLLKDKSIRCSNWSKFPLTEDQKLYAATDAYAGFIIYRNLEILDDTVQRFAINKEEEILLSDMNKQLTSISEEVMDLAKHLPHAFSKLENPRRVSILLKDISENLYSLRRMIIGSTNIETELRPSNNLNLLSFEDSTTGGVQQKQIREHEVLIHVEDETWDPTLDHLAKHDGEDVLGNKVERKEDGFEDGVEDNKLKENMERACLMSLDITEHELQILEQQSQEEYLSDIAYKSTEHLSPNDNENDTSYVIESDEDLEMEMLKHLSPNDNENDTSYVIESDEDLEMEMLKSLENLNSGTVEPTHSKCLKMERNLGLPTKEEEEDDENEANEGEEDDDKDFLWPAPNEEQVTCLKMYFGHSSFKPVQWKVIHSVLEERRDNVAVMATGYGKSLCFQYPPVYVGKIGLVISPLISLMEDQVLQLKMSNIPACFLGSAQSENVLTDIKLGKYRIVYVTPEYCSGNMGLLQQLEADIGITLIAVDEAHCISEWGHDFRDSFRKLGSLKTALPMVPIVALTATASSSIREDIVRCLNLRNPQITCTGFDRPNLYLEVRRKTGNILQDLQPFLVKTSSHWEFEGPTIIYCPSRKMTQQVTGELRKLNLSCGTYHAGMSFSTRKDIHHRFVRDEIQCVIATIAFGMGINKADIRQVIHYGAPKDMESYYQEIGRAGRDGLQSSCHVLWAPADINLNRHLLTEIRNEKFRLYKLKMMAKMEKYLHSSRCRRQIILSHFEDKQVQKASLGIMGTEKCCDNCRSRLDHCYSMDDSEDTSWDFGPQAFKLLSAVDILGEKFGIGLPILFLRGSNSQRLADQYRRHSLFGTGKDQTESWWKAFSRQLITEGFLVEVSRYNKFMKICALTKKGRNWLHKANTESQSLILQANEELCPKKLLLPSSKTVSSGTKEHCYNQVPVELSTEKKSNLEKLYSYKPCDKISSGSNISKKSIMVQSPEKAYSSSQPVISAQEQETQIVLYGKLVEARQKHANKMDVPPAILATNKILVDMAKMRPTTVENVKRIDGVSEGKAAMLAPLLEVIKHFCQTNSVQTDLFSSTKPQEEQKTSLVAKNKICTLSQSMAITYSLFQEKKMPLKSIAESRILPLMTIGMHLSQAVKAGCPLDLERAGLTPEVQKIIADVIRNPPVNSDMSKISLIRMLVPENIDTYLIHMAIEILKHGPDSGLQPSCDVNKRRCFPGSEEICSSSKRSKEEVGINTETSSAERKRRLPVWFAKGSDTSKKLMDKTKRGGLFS

Structure (SMILES)	IC50 [1]	IC50 [2]
CCc1c(N2CCN(C(=O)c3ncnc(C)c3O)CC2)c(=O)n2nc(-c3cc4c(cc3C)C(C)(C)OC4)nc2n1CC(=O)Nc1ccc(C(F)(F)F)cc1Cl [WO2025049746, Example 213]	85 nM	58 nM
CCc1c(N2CCN(C(=O)c3ncnc(C)c3O)CC2)c(=O)n2nc(-c3cccc4c3OCO4)nc2n1CC(=O)Nc1ccc(SC(F)(F)F)cc1 [WO2025049746, Example 394]	760 nM	593 nM
CCc1c(N2CCN(C(=O)c3ncnc(C)c3O)CC2)c(=O)n2nc(-c3cnc4nc(C)oc4c3)nc2n1CC(=O)Nc1ccc(C(F)(F)F)cc1Cl [WO2025049746, Example 282]	47 nM	53 nM
CCc1c(N2CCN(C(=O)c3ncnc(C)c3O)CC2)c(=O)n2nc(-c3ccc4c(c3)COC4)nc2n1CC(=O)Nc1ccc(C(F)(F)F)cc1Cl [WO2025049746, Example 13]	27.3 nM	23.5 nM
CCc1c(N2CCN(C(=O)c3ncnc(C)c3O)CC2)c(=O)n2nc(-c3ccc4occc4c3)nc2n1CC(=O)Nc1ccc(C(F)(F)F)cc1Cl [WO2025049746, Example 283]	33 nM	37 nM
CCc1c(N2CCN(C(=O)c3ncnc(C)c3O)CC2)c(=O)n2nc(-c3ccc4ncn(C)c4c3)nc2n1CC(=O)Nc1ccc(C(F)(F)F)cc1Cl [WO2025049746, Example 236]	25 nM	25 nM
CCc1c(N2CCN(C(=O)c3ccccc3NS(=O)(=O)C3CC3)CC2)c(=O)n2nc(-c3cccc4c3OCCO4)nc2n1CC(=O)Nc1ccc(C(F)(F)F)cc1Cl [WO2025049746, Example 379]	202 nM	135 nM
CCc1c(N2CCN(C(=O)c3ncnc(C)c3O)CC2)c(=O)n2nc(-c3ccc4c(c3)COC4)nc2n1CC(=O)Nc1c(Cl)cc(C(F)(F)F)c2c1OCC2 [WO2025049746, Example 442]	54 nM	67 nM
Cc1ncnc(C(=O)N2CCN(c3c(OC(F)F)n(CC(=O)Nc4ccc(C(F)(F)F)cc4Cl)c4nc(-c5ccc6c(c5)COC6)nn4c3=O)CC2)c1O [WO2025049746, Example 375]	1140 nM	4900 nM
CCc1c(N2CCN(C(=O)c3ncnc(C)c3O)CC2)c(=O)n2nc(C3=CCOCC3)nc2n1CC(=O)NC12CC(C)(C1)C2(F)F [WO2025049746, Example 371]	1480 nM	1110 nM
CCc1c(N2CCN(C(=O)c3ncnc(C)c3O)CC2)c(=O)n2nc(-c3ccn4c(C)ncc4c3)nc2n1CC(=O)Nc1ccc(C(F)(F)F)cc1Cl [WO2025049746, Example 218]	44 nM	34 nM
CCc1c(N2CCN(C(=O)c3ncnc(C)c3O)CC2)c(=O)n2nc(-c3cccc4c3CCCO4)nc2n1CC(=O)Nc1ccc(C(F)(F)F)cc1Cl [WO2025049746, Example 159]	231 nM	82 nM
CCc1c(N2CCN(C(=O)c3ncnc(C)c3O)CC2)c(=O)n2nc(-c3cc(OC)c4nn(C)cc4c3)nc2n1CC(=O)Nc1ccc(C(F)(F)F)cc1Cl [WO2025049746, Example 286]	35 nM	38 nM
CCc1c(N2CCN(C(=O)c3nc4c(cc3O)CCOC4)CC2)c(=O)n2nc(-c3ccc4c(c3)COC4(C)C)nc2n1CC(=O)Nc1ccc(C(F)(F)F)cc1Cl [WO2025049746, Example 463]	70.5 nM	84.8 nM
CCc1c(N2CCN(C(=O)c3ccccc3NS(C)(=O)=O)CC2)c(=O)n2nc(N(C)C)nc2n1CC(=O)Nc1ccc(C(F)(F)F)c2c1CC2 [WO2025049746, Example 106]	414 nM	276 nM
CCc1c(N2CCN(C(=O)c3ncnc(C)c3O)CC2)c(=O)n2nc(-c3ccc4c(c3)CO[C@@H]4C)nc2n1CC(=O)Nc1ccc(C(F)(F)F)cc1Cl [WO2025049746, Example 191]	53 nM	44 nM
CCc1c(N2CCN(C(=O)c3ncnc(C)c3O)CC2)c(=O)n2nc(-c3cc4n(n3)CCCC4)nc2n1CC(=O)Nc1ccc(C(F)(F)F)cc1Cl [WO2025049746, Example 184]	68 nM	58 nM
CCc1c(N2CCN(C(=O)c3ncnc(C)c3O)CC2)c(=O)n2nc(-c3ccc4oc(C)nc4c3)nc2n1CC(=O)Nc1ccc(C(F)(F)F)cc1Cl [WO2025049746, Example 21]	44.8 nM	38.5 nM
CCc1c(N2CCN(C(=O)c3ncnc(C)c3O)CC2)c(=O)n2nc(-c3ccn4nccc4c3C)nc2n1CC(=O)Nc1ccc(C(F)(F)F)cc1Cl [WO2025049746, Example 239]	21 nM	22 nM
CCc1c(N2CCN(C(=O)c3ncnc(C)c3O)CC2)c(=O)n2nc(-c3ccc4nc(NCC(F)F)oc4c3)nc2n1CC(=O)Nc1ccc(C(F)(F)F)cc1Cl [WO2025049746, Example 303]	42 nM	45 nM
CCc1c(N2CCN(C(=O)c3ncnc(C)c3O)CC2)c(=O)n2nc(-c3cc(F)c4nc(C)oc4c3)nc2n1CC(=O)Nc1ccc(C(F)(F)F)cc1Cl [WO2025049746, Example 297]	31 nM	32 nM
CCc1c(N2CCN(C(=O)c3ncnc(C)c3O)CC2)c(=O)n2nc(-c3cc4c(cc3F)COCC4)nc2n1CC(=O)Nc1ccc(C(F)(F)F)cc1Cl [WO2025049746, Example 260]	22 nM	21 nM

Structure (SMILES)	IC50 [1]	IC50 [2]
CCc1c(N2CCN(C(=O)c3ccccc3NS(=O)(=O)C3CC3)CC2)c(=O)n2nc(N(C)C)nc2n1CC(=O)Nc1ccc(C(F)(F)F)c2c1CC2 [WO2025049746, Example 105]	281 nM	264 nM
CCc1c(N2CCN(C(=O)c3ncnc(C)c3O)CC2)c(=O)n2nc(-c3cccc4c3COC4)nc2n1CC(=O)Nc1ccc(C(F)(F)F)cc1Cl [WO2025049746, Example 15]	40 nM	34.4 nM
CCc1c(N2CCN(C(=O)c3ncnc(C)c3O)CC2)c(=O)n2nc(-c3cccc4c3COCC4)nc2n1CC(=O)Nc1c(Cl)cc(C(F)(F)F)c2c1CC2 [WO2025049746, Example 390]	84 nM	52 nM
CCc1c(N2CCN(C(=O)c3ncnc(C)c3O)CC2)c(=O)n2nc(-c3ccc4nc(C)ccc4c3)nc2n1CC(=O)Nc1ccc(C(F)(F)F)cc1Cl [WO2025049746, Example 323]	26 nM	28 nM
CCc1c(N2CCN(C(=O)c3ncnc(C)c3O)CC2)c(=O)n2nc(C3=CCOCC3)nc2n1CC(=O)Nc1ccc(OC(F)F)cc1F [WO2025049746, Example 369]	85 nM	77 nM
CCc1c(N2CCN(C(=O)c3ncnc(C)c3O)CC2)c(=O)n2nc(-c3cnc4cn(C)nc4c3)nc2n1CC(=O)Nc1ccc(C(F)(F)F)cc1Cl [WO2025049746, Example 300]	68 nM	57 nM
CCc1c(N2CCN(C(=O)c3ncnc(C)c3O)CC2)c(=O)n2nc(-c3ccn4ncnc4c3)nc2n1CC(=O)Nc1ccc(C(F)(F)F)cc1Cl [WO2025049746, Example 220]	111 nM	96 nM
CCc1c(N2CCN(C(=O)c3ncnc(C)c3O)CC2)c(=O)n2nc(-c3cc4cnn(C)c4cc3C)nc2n1CC(=O)Nc1ccc(C(F)(F)F)cc1Cl [WO2025049746, Example 311]	50 nM	47 nM
CCc1c(N2CCN(C(=O)c3nsc(-c4ccncc4)c3O)CC2)c(=O)n2nc(-c3ccc4c(c3)COC4)nc2n1CC(=O)Nc1ccc(C(F)(F)F)cc1Cl [WO2025049746, Example 448]	49 nM	42 nM
CCc1c(N2CCN(C(=O)c3ncnc(C)c3O)CC2)c(=O)n2nc(-c3cccc4c3CCOC4)nc2n1CC(=O)Nc1c(Cl)cc(C(F)(F)F)c2c1CC2 [WO2025049746, Example 389]	1170 nM	137 nM
CCc1c(N2CCN(C(=O)c3ncnc(C)c3O)CC2)c(=O)n2nc(-c3cccc4c3OCO4)nc2n1CC(=O)Nc1c(Cl)cc(C(F)(F)F)c2c1CC2 [WO2025049746, Example 385]	96 nM	87 nM
CCc1c(N2CCN(C(=O)c3nc4n(c(=O)c3O)CCOC4)CC2)c(=O)n2nc(N3C[C@H]4COC[C@H]4C3)nc2n1CC(=O)Nc1ccc(C(F)(F)F)cc1Cl [WO2025049746, Example 93]	381 nM	320 nM
CCc1c(N2CCN(C(=O)c3ncnc(C)c3O)CC2)c(=O)n2nc(-c3cnc4[nH]cc(Cl)c4c3)nc2n1CC(=O)Nc1ccc(C(F)(F)F)cc1Cl [WO2025049746, Example 328]	42 nM	53 nM
CCc1c(N2CCN(C(=O)c3ncnc(C)c3O)CC2)c(=O)n2nc(-c3ccc4c(c3)OCCO4)nc2n1CC(=O)Nc1ccc(C(F)(F)F)cc1Cl [WO2025049746, Example 1]	23.6 nM	20.7 nM
CCc1c(N2CCN(C(=O)c3ncnc(C)c3O)CC2)c(=O)n2nc(-c3ccc4c(c3)C[C@@H](OC)C4)nc2n1CC(=O)Nc1ccc(C(F)(F)F)cc1Cl [WO2025049746, Example 182]	37 nM	31 nM
CCc1c(N2CCN(C(=O)c3ncnc(N4CC(F)(F)C4)c3O)CC2)c(=O)n2nc(-c3ccc4c(c3)COC4)nc2n1CC(=O)Nc1ccc(C(F)(F)F)cc1Cl [WO2025049746, Example 412]	37 nM	29 nM
CCc1c(N2CCN(C(=O)c3ncnc(C)c3O)CC2)c(=O)n2nc(N(C)C)nc2n1C(F)(F)C(=O)Nc1ccc(C(F)(F)F)cc1Cl [WO2025049746, Example 401]	59 nM	45 nM
CCc1c(N2CCN(C(=O)c3ncnc(C)c3O)CC2)c(=O)n2nc(-c3cccc4c3COCC4)nc2n1CC(=O)Nc1ccc(C(F)(F)F)cc1Cl [WO2025049746, Example 5]	86.9 nM	59.9 nM
CCc1c(N2CCN(C(=O)c3ncnc(C)c3O)CC2)c(=O)n2nc(-c3ccc4nn(C)c(C)c4c3)nc2n1CC(=O)Nc1ccc(C(F)(F)F)cc1Cl [WO2025049746, Example 298]	31 nM	29 nM
CCc1c(N2CCN(C(=O)c3nocc3O)CC2)c(=O)n2nc(-c3ccc4c(c3)COC4)nc2n1CC(=O)Nc1ccc(C(F)(F)F)cc1Cl [WO2025049746, Example 446]	20 nM	20 nM
CCc1c(N2CCN(C(=O)c3ncnc(C)c3O)CC2)c(=O)n2nc(-c3ccc4c(c3)CCO4)nc2n1CC(=O)Nc1ccc(C(F)(F)F)cc1Cl [WO2025049746, Example 11]	27.3 nM	24.6 nM
